Source: patent publication US20120329721A1, “MEANS FOR PREVENTING AND TREATING CELLULAR DEATH AND THEIR BIOLOGICAL APPLICATIONS” (CHIESI FARMACEUTICI S.P.A., priority 2003, published 2012)
“Also recorded” adds a separate entry of the source. Read-outs that look alike come from different tables or passages of the source. Blank lines part the entries; values can stand above or below the molecule they belong to. Residues, ends and D or L forms follow the SMILES beside them. *: point of attachment. Cbz = O=C(OCc1ccccc1)*; d = 2'-deoxy (DNA); r = 2'-OH (RNA); CH2F = FC*

Tests used:
primary cortical neurons [1] = type: cell-based; conditions: for ΔΨm loss (drop) in SD-neurons: JC-1
[2] = biological target: T1, human recombinant caspase-2 (Homo sapiens, UniProt P42575); assay: In vitro VDVAD-AMC cleavage by recombinant caspase-2; type: biochemical
T1 construct: purchased BIOMOL
T1 sequence (P42575 170-325 limits assumed): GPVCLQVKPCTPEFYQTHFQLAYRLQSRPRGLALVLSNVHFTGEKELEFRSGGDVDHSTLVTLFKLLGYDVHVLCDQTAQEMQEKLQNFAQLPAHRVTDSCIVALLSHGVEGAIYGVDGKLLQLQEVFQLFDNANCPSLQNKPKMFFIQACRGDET
T1 sequence (P42575 348-452 limits assumed): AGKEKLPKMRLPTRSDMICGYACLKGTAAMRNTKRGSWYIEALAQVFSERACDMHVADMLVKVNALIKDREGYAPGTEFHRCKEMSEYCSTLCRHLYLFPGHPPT
Experimental: Activity of human recombinant caspase-2 (BIOMOL QuantiZyme™ Assay System) was assessed in 100 μl assay buffer (50 mM HEPES, pH 7.4, 100 mM NaCl, 0.1% CHAPS, 10 mM DTT, 1 mM EDTA, 10% glycerol).

[3] = system: neonatal ischemic brain injury in 7 day-old rats; conditions: cited from earlier work
[4] = system: neonatal ischemic brain injury in 7 day-old rats; conditions: rat, in vivo, ip
Bax = Bax translocation to mitochondria in SD-neurons (Δ21 antibody immunostaining, subcellular fractionation); type: cell-based, mouse
cytochrome c = assay: Immunodetection of cytochrome c release in SD-neurons; type: cell-based, mouse
caspase-3 = assay: In cellula caspase-3 like activity (FAM-DEVD-FMK FLICA or anti-cleaved caspase-3 antibody) in SD-neurons; type: cell-based, mouse
caspase-2 [5] = assay: In cellula caspase-2 like activity (FAM-VDVAD-FMK FLICA; Western blotting) in SD-neurons; type: cell-based, mouse
Jurkat cells = assay: VP16-induced cell death of Jurkat cells, cytoprotection assay; type: cell-based, human
primary cortical neurons [6] = assay: Cortical neuron death induced by other stimuli (ionomycin, staurosporine, β-amyloid 25-35, MPTP, 3-NPA, SNP); type: cell-based, mouse
caspase-8 = assay: In cellula caspase-8 like activity (FAM-LETD-FMK FLICA) in SD-neurons; type: cell-based, mouse
caspase-9 = assay: In cellula caspase-9 like activity (FAM-LEHD-FMK FLICA) in SD-neurons; type: cell-based, mouse
Experimental: Neurons were incubated with 1/150 of the DMSO stock solution of the FLICA for 1 hr at 37° C. 7-AAD and Hoechst were added during the last 15 min. Then neurons were washed three times in washing buffer (CaspaTag™ Kit). […] Cleaved caspase-3 was evidenced in cellula by immunodetection using Phycoerythrin (PE)-conjugated polyclonal antibodies (Beckton Dickinson). Neurons were stained by 7-AAD, trypsinized and fixed in PBS containing 1% PFA and 20 μg/ml Actinomycin D (AD) for 20 min. […] After washings in PBS, PE-related fluorescence was analysed on the cytometer (Fl-2 channel). Z-val-Ala-Asp(OMe)-FMK (Z-VAD-FMK), Quinoline-Val-Asp (OMe)-CH2-O-Ph (Q-VD-OPH), Z-DEVD-FMK ([…], ICN) and Z-LEHD-FMK ([…], all purchased from ICN (Orsay, France), and 4-(2-Aminoethyl)benzenesulfonyl fluoride (AEBSF, Pefabloc SC, Roche, Meylan, France) were added at 100 μM at the initiation of serum deprivation. Sulforhodamine-DEVD-FMK, (CaspaTag™ Red Activity Kit) permitted to detect activated caspase-3 and FITC-Annexin V. Neurons were incubated with 1/900 of the DMSO stock solution of the FLICA, and 1× FITC-annexin V in 200 μl of annexin-buffer for 30 min at 37° C. Then neurons were washed three times in a buffer composed of 50% washing buffer and 50% annexin-buffer. […] For FM, FLICA was excited through the BP515-560 filter and its fluorescence was collected through the LP590 long pass emission filter.
Neurons were loaded with 1 μM JC-1 for 30 min at 37° C. […] JC-1 monomers were detected in the Fl-1 channel by FC. […] Activated caspase-2, -3, -8 and -9 were detected using specific FAM-conjugated peptides (called Fluorochrome Labeled Inhibitor of Caspase, FLICA: CaspaTag™ fluorescein Caspase Activity Kits, Q-Biogen, Illkirch, France; ApoFluor™ Caspase Detection Kits, ICN, Orsay, France): FAM-VDVAD-FMK, FAM-DEVD-FMK, FAM-LETD-FMK and FAM-LEHD-FMK, respectively. Neurons were incubated with FLICAs (1:150, CaspaTag™ or 1:500, ApoFluor™) for 1 hr at 37° C., then washed three times in washing buffer. […] Phosphatidylserine (PS) exposure to the outer leaflet of the plasma membrane was detected through the fixation of FITC conjugated-annexin V (Immunotech).

caspase-2 [7] = assay: Caspase-2 activation (FLICA) in VP16-treated Jurkat cells; type: cell-based, human; conditions: VP16 10 μM, 7 hrs; inhibitors 50 μM
murine caspase-2 = assay: Caspase-2 knock-down by siRNA in cortical neurons (RT-PCR, Western blotting, 10C6 immunostaining); type: cell-based, mouse; conditions: in situ antibody-based detection
Bax α = assay: Bax cleavage (p22 to p18) in SD-neurons by Western blotting; type: cell-based, mouse; conditions: 24 hr-SD, Western Blotting Δ21 antibody; VDVAD/QVDOPH 100 μM, ALLN/ALLM 25 μM, E64d 25-50 μM, lactacystin 1-10 μM, epoxomycin 10 μM
Experimental: Neurons were lysed at RT in 25 mM Tris-HCl pH 7.4, 25 mM NaCl, 5 mM EDTA, 1% Triton X-100 supplemented by complete protease inhibitors cocktail (Roche). Protein concentration was determined using the Bio-Rad protein assay kit. Proteins (30 μg for caspase-2; 10 μg for Bax) were separated on 12.5% polyacrylamide gels and transferred to PVDF membranes (Amersham). […] The monoclonal anti-mouse caspase-2antibody (11B4, Alexis Biochemicals) was used at a 1:1000 dilution; polyclonal antibody (Δ21, Santa Cruz Biotechnology) raised against mouse Bax α deleted for the carboxy terminal 21 amino acids was used at a 1:200 dilution; polyclonal antibody (N20, Santa Cruz Biotechnology) raised against the amino terminus of Bax α (recognizing residues 11 to 30) was used at a 1:1000 dilution. Actin (42 kDa; Sigma; 1:5000) is used as an equal loading control. Immunoblotting of heat-shock protein 60 (HSP60) with a mouse monoclonal anti-HSP (Sigma; 1:400) was used to check the purity of the heavy membrane fraction enriched in mitochondria.

VDVAD-AMC = biological target: T2, VDVAD-AMC
T2 chain: VDVAD

[8] = inhibitor 2 μM, 50 μM VDVAD-AMC, caspase-2 125 U, 30 min at 37° C.
[9] = 24 hr-SD, inhibitors 100 μM (BA 25 μM)
[10] = 24 hr-SD, inhibitors 100 μM (BA 25 μM), listed as LEHD
[11] = 24 hr-SD, inhibitors 100 μM (BA 25 μM), listed as z-LEHD-fmk

Molecule: COC(=O)CC(NC(=O)OC(C)(C)C)C(=O)CF [BOC-D-FMK, BOC-Asp(OMe)-fluoromethylketone]
survival / protection of SD-neurons against cell death (apoptosis hallmarks overall) (primary cortical neurons [1]): neither Z-VAD-FMK nor BOC-D-FMK (BOC-D) is able to delay or to abrogate; also recorded: inefficient | Survival (primary cortical neurons [1]; SD model, compound added at the start of SD at the concentration of column '[ ], μM' (first concentration/target where two are printed)): No | inhibition of VDVAD-AMC cleavage by recombinant caspase-2 [2, 8]: completely inactive | animals with aggravation ([3]; Renolleau's model): 60% | reduction in infarct volume (previous results in this model) ([3]; previous results obtained in this model): did not induce such a significant reduction in infarct volume

Molecule: COC(=O)CC(NC(=O)C(NC(=O)c1ccc2ccccc2n1)C(C)C)C(=O)COc1ccccc1 (stereo not shown) [Q-VD-OPH, Quinoline-Val-Asp (OMe)-CH2-O-Ph]
animals that exhibited no infarct [4]: 4 | infarct volume (% damage in the lesioned ipsilateral hemisphere) [4]: 12.4±2.6% | mortality rate during ischemia or before killing [4]: < 4% | reduction in infarct volume [4]: 44% | Survival (primary cortical neurons [1]): Yes | concentration required for optimal survival / higher protective effect (primary cortical neurons [1]): 100 µM | degradation phase of apoptosis: PS exposure, nuclear apoptosis (NA), PMP in SD-neurons (primary cortical neurons [1]): strongly prevent; also recorded: fully blocked | inhibition of PMP (7-AAD) induced by serum deprivation (primary cortical neurons [1]): 93.9+/−3.8% | survival / protection of SD-neurons against cell death (apoptosis hallmarks overall) (primary cortical neurons [1]): mostly rescued; also recorded: highly preserves both nuclear morphology and neurites integrity | Bax translocation (relocation) to mitochondria in SD-neurons (Bax): impair Bax translocation to mitochondria; also recorded: prevented | cytochrome c release from mitochondria in SD-neurons (cytochrome c): efficiently blocked | caspase-3 like activity / activation in SD-neurons (caspase-3): strongly prevent; also recorded: completely inactivated; also recorded: prevent downstream cytochrome c release-dependent activation | inhibition of caspase-3 like activity induced by serum deprivation (caspase-3; 100 µM): 95.3 +/- 5.6% | caspase-2 like activity / activation in SD-neurons (caspase-2 [5]): completely inactivated; also recorded: abolish caspase-2 activation | inhibition of VDVAD-AMC cleavage by recombinant caspase-2 [2]: blocked | cell death induced by VP16 (survival) (Jurkat cells): prevents cell death | terminal nuclear alterations and PMP in VP16-treated Jurkat cells (Jurkat cells): mostly prevent | cell death induced by staurosporine or ionomycin (primary cortical neurons [6]): is not prevented | protection from NA and PMP induced by β-amyloid (25-35), MPTP, 3-NPA, SNP or ionomycin (primary cortical neurons [6]): fails to provide protection, except for β-amyloid; also recorded: fail to prevent significantly | caspase-8 like activity in SD-neurons (caspase-8): completely inactivated | caspase-9 like activity / activation in SD-neurons (caspase-9): completely inactivated; also recorded: prevent downstream cytochrome c release-dependent activation

caspase-9 like activity / activation in SD-neurons (caspase-9; [9]): prevents caspase-9 activation | caspase-9 like activity / activation in SD-neurons (caspase-9; [11]): abolition of caspase-9 like activity
Molecule: COC(=O)CCC(NC(=O)C(CC(C)C)NC(=O)OCc1ccccc1)C(=O)NC(Cc1cnc[nH]1)C(=O)NC(CC(=O)OC)C(=O)CF (stereo not shown) [Z-LEHD-FMK, N-benzyloxycarbonyl-Leu-Glu(Ome)-His-Asp(OMe)-fluoromethylketone] (Cbz-LE(OMe)HD(OMe)-CH2F; configuration not given here)
ΔΨm loss (drop) in SD-neurons (primary cortical neurons [1]; [9]): does not impair; also recorded: does not impaired ΔΨm drop | ΔΨm loss (drop) in SD-neurons (primary cortical neurons [1]; [10]): does not impair ΔΨm drop | degradation phase of apoptosis: PS exposure, nuclear apoptosis (NA), PMP in SD-neurons (primary cortical neurons [1]; [9]): delays and prevents apoptotic bodies formation but not stage I-condensation; also recorded: prevents | degradation phase of apoptosis: PS exposure, nuclear apoptosis (NA), PMP in SD-neurons (primary cortical neurons [1]; [10]): preventing PS exposure, NA and PMP | degradation phase of apoptosis: PS exposure, nuclear apoptosis (NA), PMP in SD-neurons (primary cortical neurons [1]; [11]): abolishes PS exposure and PMP | Bax translocation (relocation) to mitochondria in SD-neurons (Bax; 24 hr-SD, inhibitors 100 μM (furosemide 2 mM)): does not prevent mitochondrial Bax relocation | Bax translocation (relocation) to mitochondria in SD-neurons (Bax; 24 hr-SD, inhibitors 100 μM (furosemide 2 mM), listed as LEHD): fail to impair Bax relocation | cytochrome c release from mitochondria in SD-neurons (cytochrome c; 24 hr-SD, inhibitors 100 μM): could not prevent cytochrome c release | cytochrome c release from mitochondria in SD-neurons (cytochrome c; 24 hr-SD, inhibitors 100 μM, listed as LEHD): fail to impair cytochrome c release | caspase-2 activation in VP16-treated Jurkat cells (caspase-2 [7]): do not impair caspase-2 activation | inhibition of VDVAD-AMC cleavage by recombinant caspase-2 [2, 8]: did not interfere highly; also recorded: not strongly inactivated | ΔΨm loss in VP16-treated Jurkat cells (Jurkat cells; VP16 10 μM, 7-8 hrs, inhibitors 50 μM): not abolished

Molecule: siRNA C2 m: irrelevant control siRNA with 4 mutations, duplex of SEQ ID No 3 and SEQ ID No 4 (chain 1 CAUCUACUCGAGACGGACATT; chain 2 UGUCCGUCUCGAGUAGAUGTT; sugars from the 5' end r19 d2, backbone not given here)
caspase-2 expression (gene silencing / knock-down) (murine caspase-2): prevents neither gene/protein expression | Bax cleavage (p18 Bax) in SD-neurons (Bax α): has no effect

B1: human recombinant caspase-2 (BIOMOL QuantiZyme Assay System) (protein)
chain: GPVCLQVKPCTPEFYQTHFQLAYRLQSRPRGLALVLSNVHFTGEKELEFRSGGDVDHSTLVTLFKLLGYDVHVLCDQTAQEMQEKLQNFAQLPAHRVTDSCIVALLSHGVEGAIYGVDGKLLQLQEVFQLFDNANCPSLQNKPKMFFIQACRGDETDRGVDQQDGKNHAGSPGCEESDAGKEKLPKMRLPTRSDMICGYACLKGTAAMRNTKRGSWYIEALAQVFSERACDMHVADMLVKVNALIKDREGYAPGTEFHRCKEMSEYCSTLCRHLYLFPGHPPT
cleavage of VDVAD-AMC (fluorescence emission at 510 nm upon excitation at 405 nm) (VDVAD-AMC): The cleavage of 50 µM VDVAD-AMC by recombinant caspase-2 (125 U) was measured after 30 min at 37 °C
